{"source": "patent US20150064221A1", "about": "“COMPOUNDS HAVING IMMUNOMUDULATOR ACTIVITY” (priority 2012, published 2015)", "key": {"[1]": {"test_system": "Peritoneal macrophages (PM)", "test": "In vitro cytokine synthesis by peritoneal macrophages", "format": "cell-based, mice", "description": "(§1) Peritoneal macrophages (PM) and splenic mononuclear cells (SMNC) were isolated from normal mice, cultured in nutrient medium and stimulated with LPS and/or ConA in the absence or presence of VGX-1027. […] VGX-1027 had no effect on MIF expression in either cell type, on proliferation of SMNC, and on IL-10 and Interferon (IFN) γ production by SMNC."}, "[2]": {"test": "Twenty-eight day toxicology study in dogs", "format": "in vivo", "settings": "28 days, highest dose 100 mg/kg/day", "description": "(§2) Twenty-eight day toxicology studies were performed in both mice and dogs with increasing concentration to achieve toxicity. The following are the results of those studies."}, "[3]": {"test_system": "Peritoneal macrophages (PM)", "test": "Ex vivo cytokine synthesis by PM from treated mice", "format": "cell-based", "description": "These experiments were carried out to explore if intraperitoneal (i.p.) or oral administration (p.o.) in mice with VGX-1027 could influence the proliferative response of SMNC and the production of IL-1β, IL-10, TNF-α, IFN-γ and MIF from isolated PM and SMNC. PM and SMNC isolated from mice treated in vivo with VGX-1027 for 7 consecutive days intraperitoneally (0.5 mg/mouse), or orally (2.5 mg/mouse), or isolated from control animals that received VGX-1027 vehicle (Na2HPO4/H2O), or were without any treatment. 24 h after the last VGX-1027 treatment, PM and SMNC were collected for further in vitro stimulation and analysis."}, "STAT3": {"test_system": "STAT3", "test": "IL-6 induced STAT3 phosphorylation in CD4+ T cells (Western blot)", "format": "cell-based", "settings": "IL-6 20 ng/ml, 10 uM", "description": "FIG. 17. Western blot (A) and relative densitometric analysis (B) of the levels of phospho-STAT3 in CD4+ T cells after stimulation with IL-6.\nIn vitro T-cell treatment: Naive, sorted CD4+ T cells were obtained from the University of Pennsylvania School of Medicine, Immunology Clinical Core, cultured in vitro with IL-6 (20 ng/ml) in the presence or absence of VGX1027 (10 uM) for 0, 30 min, 1 hr, 2 hrs and 5 hrs. At the end of the incubation period, cells were lysed for 30 min at 4° C. by using the Nonidet P-40 lysis buffer (Invitrogen) supplemented with a phosphatase inhibitor mixture (PhosSTOP) and a protease inhibitor mixture (Complete) as directed by the manufacturer (Roche Applied Science). Lysates were collected and spun at 10,000 rpm for 5 min at 4° C., and then, 50 ug of proteins were mixed with 2× sample buffer (Invitrogen) for subsequent 4-12% SDS-PAGE electrophoresis. Afterward, proteins were transferred to nitrocellulose using the iBlot Dry Blotting System (Invitrogen), immunodetection was performed with the SNAP i.d. Protein Detection System (Millipore) using specific p-STAT3 and STAT3 monoclonal antibodies (Cell Signaling), and the expressed proteins were visualized with HRP-conjugated goat antimouse IgG using an ECL detection system (Amersham Biosciences, Piscataway, N.J.)."}, "spontaneous diabetes": {"test_system": "spontaneous diabetes", "test": "Spontaneous diabetes in NOD mice", "format": "in vivo", "settings": "i.p. 20 mg/kg 6 times a week, week 12 to 25", "description": "(A) Euglycaemic female 12 week old NOD mice were treated intraperitoneally with either 20 mg/kg bw VGX-1027 or its vehicle six times a week from the 12th until the 25th week of age. An additional control group of mice was left untreated. Each group consisted of 16 mice. The data are representative of two independent experiments that were merged because of interstudies variability lower than 10%. Statistical analysis was performed by Logrank (Mantel-Cox). (B) Plasma glucose levels in control CBA/H mice receiving STZ (40 mg/kg/day, for 5 consecutive days) in conjunction with 12 daily intreperitoneum injections of vehicle (STZ), or in mice treated with STZ and VGX-1027 given as a continuous 12-day treatment. 100 mg/kg bw of VGX-1027, administered orally from day −1 to day +10. Results from a representative experiment are presented as mean±SD for seven to eight mice per group. *p<0.05 refers to treatment with MLD-STZ."}, "SEB-induced lethal shock": {"test_system": "SEB-induced lethal shock", "set-up": "species or system mice", "settings": "mouse, in vivo"}, "[4]": {"test_system": "splenic mononuclear cells (SMNC)", "test": "In vitro proliferation and cytokine synthesis of splenic mononuclear cells", "format": "cell-based, mice", "description": "as §1"}, "[5]": {"test": "Twenty-eight day toxicology study in mice", "format": "in vivo", "settings": "28 days, highest dose 500 mg/kg/day", "description": "as §2"}, "COX-2": {"target": "COX-2 (Homo sapiens, UniProt P35354)", "sequence (P35354 18-604)": "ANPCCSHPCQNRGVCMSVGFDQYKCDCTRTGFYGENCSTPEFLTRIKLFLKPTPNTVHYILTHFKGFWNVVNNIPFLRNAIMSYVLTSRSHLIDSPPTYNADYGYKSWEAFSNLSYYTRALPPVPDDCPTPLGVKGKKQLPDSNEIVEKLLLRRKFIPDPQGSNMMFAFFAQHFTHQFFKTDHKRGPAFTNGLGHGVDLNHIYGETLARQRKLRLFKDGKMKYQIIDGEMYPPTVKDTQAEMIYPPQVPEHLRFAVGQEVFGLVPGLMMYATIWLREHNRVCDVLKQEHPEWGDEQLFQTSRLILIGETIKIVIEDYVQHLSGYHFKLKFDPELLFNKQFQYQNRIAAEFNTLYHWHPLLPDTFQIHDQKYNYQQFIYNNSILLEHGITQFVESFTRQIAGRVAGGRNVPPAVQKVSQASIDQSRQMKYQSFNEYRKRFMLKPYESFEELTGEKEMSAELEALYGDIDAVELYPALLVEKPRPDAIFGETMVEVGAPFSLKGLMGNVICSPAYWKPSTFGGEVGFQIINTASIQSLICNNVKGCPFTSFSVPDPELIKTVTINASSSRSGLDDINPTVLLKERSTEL", "test": "COX-2 activity", "format": "biochemical", "description": "(§3) The highest plasma concentrations generally occurred in 1-2 hours. […] The highest level of inhibition was ˜35% for 2C19 at a 30 μM concentration. […] Lastly, VGX-1027 is stable in human liver S9 fractions (with phase 1 and 2 cofactors) with t1/2>90 minutes, which indicates a low likelihood of metabolism in the liver."}, "COX-1": {"target": "COX-1 (Homo sapiens, UniProt P23219)", "sequence (P23219 24-599)": "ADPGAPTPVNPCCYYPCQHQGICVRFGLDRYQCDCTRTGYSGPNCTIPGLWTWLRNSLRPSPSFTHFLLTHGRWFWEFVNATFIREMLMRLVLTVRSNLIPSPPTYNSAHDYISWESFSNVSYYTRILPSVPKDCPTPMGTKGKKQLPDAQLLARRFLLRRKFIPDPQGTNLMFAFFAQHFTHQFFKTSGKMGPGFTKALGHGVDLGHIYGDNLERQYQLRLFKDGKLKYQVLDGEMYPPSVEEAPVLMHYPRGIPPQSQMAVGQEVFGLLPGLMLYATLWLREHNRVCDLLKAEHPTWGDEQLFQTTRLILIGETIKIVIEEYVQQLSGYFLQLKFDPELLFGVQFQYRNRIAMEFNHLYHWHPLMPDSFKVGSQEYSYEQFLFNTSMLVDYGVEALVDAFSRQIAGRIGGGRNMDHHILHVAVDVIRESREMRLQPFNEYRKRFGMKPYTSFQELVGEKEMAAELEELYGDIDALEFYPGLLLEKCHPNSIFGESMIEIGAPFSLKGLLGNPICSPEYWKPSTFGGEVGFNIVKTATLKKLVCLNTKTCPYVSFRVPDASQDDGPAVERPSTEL", "test": "COX-1 activity", "format": "biochemical", "description": "as §3"}, "[6]": {"test_system": "type II collagen-induced arthritis", "test": "Type II collagen-induced arthritis (CIA)", "format": "in vivo, mice", "description": "VGX-1027 was administered intraperitoneally and were measured for an arthritic score (A), cumulative arthritic score (B), hind paws edema (C), and histological score (D) were measured. Data are shown as mean values±SD form 2 independent experiments. Statistical analysis was performed by Student's t test. *p<0.0001 was taken as significant.\nTo induce CIA, the mice were injected intradermally at the base of the tail with […] of an emulsion containing […] of CII, and were boosted on day 21. In terms of treatment, VGX-1027 was used only as a “therapeutic” regime by administering the drug via intraperitoneal administration to mice with a clinical score equal or higher than 1. The mice were treated with vehicle, dexamethasone (0.3 mg/kg), or VGX-1027 (0.5 mg/mouse) for 10 consecutive days. The mice were assessed with the following scoring system: 0=no signs of arthritis; 1=swelling and/or redness of the paw or 1 digit; 2=involvement of 2 joints; 3=involvement of N2 joints, and 4=severe arthritis of the entire paw and digits. An arthritis index was calculated for each mouse by summing the scores for the individual paws. Other clinical severity measures were hind paw volume and histological assessment of damage; the latter was measured with the following criteria: 0=no damage; 1=edema; 2=presence of inflammatory cells; and 3-bone resorption."}}, "note": "“Also recorded” adds a separate entry of the source.", "data": [{"smiles": "O=C(O)CC1CC(c2ccccc2)=NO1", "note": "(stereo not drawn) [VGX-1027, 3-phenyl-4,5-dihydro-5-isoxazoleacetic acid]", "values": [{"measurement": "IL-1 β production", "setting": "[1]", "result": "inhibited"}, {"measurement": "IL-10 production", "setting": "[1]", "result": "inhibited"}, {"measurement": "MIF expression", "setting": "[1]", "result": "no effect"}, {"measurement": "TNF-α production", "setting": "[1]; LPS and/or ConA stimulated", "result": "markedly inhibited"}, {"measurement": "early deaths", "setting": "[2]", "result": 3}, {"measurement": "IL-10 synthesis", "setting": "[3]; mice treated 7 days", "result": "impaired synthesis"}, {"measurement": "TNF-α synthesis", "setting": "[3]; mice treated 7 days", "result": "impaired synthesis"}, {"measurement": "IL-1 β synthesis", "setting": "[3]; mice treated 7 days i.p. 0.5 mg/mouse or orally 2.5 mg/mouse", "result": "impaired synthesis"}, {"measurement": "MIF expression", "setting": "[3]; mitogenic stimulation", "result": "normal pattern"}, {"measurement": "magnitude of STAT3 phosphorilation", "setting": "STAT3", "result": "overall reduction"}, {"measurement": "time of maximum STAT3 activation after IL-6", "setting": "STAT3", "result": 1, "unit": "h"}, {"measurement": "mice developing TID", "setting": "spontaneous diabetes; by 25 weeks", "result": 31.3, "unit": "%"}, {"measurement": "tolerability of prolonged treatment", "setting": "spontaneous diabetes", "result": "well tolerated"}, {"measurement": "symptomology associated with SEB challenge", "setting": "SEB-induced lethal shock", "result": "attenuated"}, {"measurement": "survival", "setting": "SEB-induced lethal shock; ip", "result": 50, "unit": "%"}, {"measurement": "IL-10 production", "setting": "[4]", "result": "no effect"}, {"measurement": "Interferon (IFN) γ production", "setting": "[4]", "result": "no effect"}, {"measurement": "MIF expression", "setting": "[4]", "result": "no effect"}, {"measurement": "proliferation", "setting": "[4]", "result": "no effect"}, {"measurement": "TNF-α production", "setting": "[4]; LPS and/or ConA stimulated", "result": "markedly inhibited"}, {"measurement": "toxicology findings", "setting": "[5]", "result": "notable changes found in kidneys, liver, spleen, testis, epidydimus and bladder"}, {"measurement": "inhibition of COX-2 activity", "setting": "COX-2", "result": "no significant inhibition"}, {"measurement": "inhibition of COX-1 activity", "setting": "COX-1", "result": "no significant inhibition"}, {"measurement": "hind paw volume", "setting": "[6]; after 3 days of therapy", "result": "significant decreases"}, {"measurement": "mean arthritic score", "setting": "[6]; after 3 days of therapy", "result": "significant decreases"}, {"measurement": "inflammation via histological measurement", "setting": "[6]; mouse, in vivo", "result": "improvements"}, {"measurement": "clinical features of CIA", "setting": "[6]; therapeutic, i.p. 0.5 mg/mouse, 10 days", "result": "attenuated; also recorded: comparable to the amount observed with dexamethasone"}]}]}
